For this assay, the system named is Plasmodium falciparum. The experiment in a line: GSK_TCMDC: Inhibition of Plasmodium falciparum 3D7 in whole erythrocytes, using parasite LDH activity as an index of growth. It is filed as functional, organism-based. As to conditions: Plasmodium falciparum, 3D7.
The compound `OC(CNCc1ccccc1OCc1ccccc1)c1cccc(Cl)c1` (stereo unspecified) gave an XC50 of 219 nM.

Compound `Cc1ccc(C2CCN(CCCCNC(=O)c3ccc(NC(=O)c4ccc(Cl)cc4)cc3)CC2)c(OCC(F)(F)F)c1` gave an XC50 of 284 nM. For `CC(=O)Oc1c(C2CCN(CCCCNC(=O)c3ccc(-c4ccc(C#N)cc4)cc3)CC2)ccc2c1CCCC2` the value was 1130 nM; for `N=C(N)Nc1cccc(NC(=O)Nc2cccc(NC(=N)N)c2)c1`, 258 nM; for `CC(=O)c1ccc(O)c(CC(O)CO)c1` (stereo unspecified), 723 nM. For the compound `CCNC(=O)c1ccc2c(c1)c(C)c(C)n2Cc1ccc(F)cc1`, the XC50 came to 767 nM.

The compound `O=C(CCC(=O)c1ccc2c3c(cccc13)CC2)NC1CCC(CN2CCC(c3c[nH]c4ccccc34)CC2)CC1` (stereo unspecified) registered an XC50 of 918 nM.

As to `O=C(NCCCc1ccccc1)c1ccc(O)c(-c2cc(Cl)cc(Cl)c2)c1`, the XC50 worked out at 567 nM. `CS(=O)(=O)Nc1ccc(OCCCCCCOc2ccc(NS(C)(=O)=O)cc2)cc1` registered an XC50 of 493 nM. To `CNS(=O)(=O)c1ccc(NC(=O)c2cc(-c3cccnc3)nc3ccc(Br)cc23)cc1` belongs 907 nM; to `COc1ccc(NC(=O)NC2CCN(CCCCCNC(=O)/C=C/c3ccc(Cl)c(Cl)c3)CC2)cc1`, 1010 nM; to `Cc1cccc2nc(-c3ccc(-c4cccc(NC(=O)Nc5ccc6c(c5)OCO6)c4)cc3)[nH]c12`, 745 nM.

Regarding `COc1ccc2ncc(Cl)c([C@@H](O)CN3CCC(NCc4cc5c(cn4)OCCO5)CC3)c2c1`, the XC50 was found to be 59.5 nM. As to `Fc1ccc(-c2cncc(-c3ccc(F)cc3)n2)cc1`, the XC50 came to 639 nM. In turn, `COc1ccccc1C1CCN(CCCCNC(=O)c2ccc(/C=C/c3cc(Cl)cc(Cl)c3)cc2)CC1` gave an XC50 of 718 nM.

Consider `O=C(Cc1ccccc1)NC1CCN(c2ccnc3cc(Cl)ccc23)C1` (stereo unspecified), for which the XC50 came out at 805 nM. For `O=C(Nc1ccc(Br)cc1)N(CCN1CCOCC1)CC(O)COc1ccc(Cl)c(F)c1` (stereo unspecified) the value was 1040 nM; for `CN1CCC(c2cc3c(cc2Br)CCN3C(=O)Nc2ccc(-c3ccncc3)c(Cl)c2)CC1`, 1010 nM. In turn, `O=C(C=Cc1ccc(Br)cc1)N1CCC(CCN2CCC(c3c[nH]c4ccccc34)CC2)CC1` yielded an XC50 of 919 nM.

`COc1ccc2c(c1)nc(CNC(=N)N)n2Cc1ccc(Cl)cc1` registered an XC50 of 359 nM. To `COc1ccc(Nc2nccc(N3CCC(NC(=O)Nc4cccc(C(C)=O)c4)C3)n2)cc1` (stereo unspecified) belongs 821 nM. Regarding `CCCc1cc(Cc2cnc(N)nc2N)cc(CCC)c1OCCCC(=O)OCC`, the XC50 stood at 51.8 nM. Compound `N#Cc1ccc(CN2CCCN(Cc3cccc(NC(=O)c4cc5ccccc5s4)c3)CC2)cc1` returned an XC50 of 907 nM. For `COc1ccc2nc3cc(Cl)ccc3c(NCCO)c2c1` the value was 800 nM; for `CC(C)CNCc1ccc(-c2ccc(CN(CCCN3CCN(C)CC3)C(=O)/C=C/c3ccccc3)cc2)cc1`, 917 nM. For `Cn1nc(-c2ccc(CN[C@@H]3CCc4ccc(O)cc43)cc2)c2cnc(NCCCN3CCCC3)nc21` the value was 797 nM.

`COc1cc2nc(C)nc(Nc3ccc(Oc4ccccc4)cc3)c2cc1OC` displayed an XC50 of 720 nM. For the compound `CNC(=O)c1cnc(Nc2ccc3[nH]c(=O)[nH]c3c2)nc1Nc1cccc(OC(C)C)c1`, the XC50 amounted to 926 nM.

In turn, `CCCCc1ccc(-c2ccc(-c3c(C)[nH]c(C)c(Br)c3=O)cn2)cc1` returned an XC50 of 57.8 nM. Turning to `CCOc1cc(C(=O)N[C@@H](Cc2ccccc2)[C@H](O)CNCc2cccc(OC)c2)cc(N2CCCCS2(=O)=O)c1`, the XC50 worked out at 721 nM. `CC(=O)Nc1ccc(CN(Cc2ccc(C)cc2)Cc2cccc(Oc3ccccc3)c2)cc1` showed an XC50 of 1050 nM. On to `CC(C)(C)SCC(O)Cn1c2ccc(Br)cc2c2cc(Br)ccc21` (stereo unspecified), for which the XC50 was 1000 nM.

The compound `COc1ccc2nccc([C@@H](O)CN3CCC(NC(=O)C(=Cc4ccc(C#N)cc4)c4ccc(-c5ccccc5)cc4)CC3)c2c1` yielded an XC50 of 739 nM. The compound `CCn1cnc2c(Nc3cccc([N+](=O)[O-])c3)nc(N3CCC(N4CCCCC4)CC3)nc21` showed an XC50 of 954 nM. `COc1cc2c(c(Cl)c1OC)CCN(Cc1ccccc1)CC2c1ccc(NC(=O)C(F)(F)F)cc1` (stereo unspecified): the XC50 came to 924 nM. Compound `O=C(NCCCCN1CCC(c2cccc3ccccc23)CC1)c1ccc(-c2ccc(C(F)(F)F)cn2)cc1` came in with an XC50 of 867 nM.

The compound `N#Cc1ccc(N/C(=N\c2ccccc2Br)N(C2CCCCC2)C2CCCCC2)c(O)c1` displayed an XC50 of 785 nM.

As for `COc1ccc(CN2CCN(Cc3cc(Cl)ccc3O)CC2CCO)c(C)c1C` (stereo unspecified), the XC50 turned out to be 1490 nM. `Cc1cc(Nc2ccnc(-c3ccc(Cl)cc3)n2)ccn1` came in with an XC50 of 1040 nM. In the case of `COc1cc(C=NNc2cc(C)nc3c(OC)cccc23)cc(OC)c1OC`, the XC50 worked out at 887 nM. Turning to `COc1ccc(-c2cnc3ccc(NCc4ccc(S(N)(=O)=O)cc4)nn23)cn1`, the XC50 was 867 nM. Compound `COc1ccc(NC(=O)Nc2ccc(-c3ccncc3)c(Cl)c2)cc1N1CCN(C)CC1` had an XC50 of 755 nM. `CO/C(=C\C=C\c1cc2cc(Cl)c(Cl)cc2[nH]1)C(=O)NCCCNC12CC3CC(CC(C3)C1)C2` came in with an XC50 of 730 nM.

`CCCC(CC)n1ccc2c3c(N)nc(N)nc3ccc21` (stereo unspecified) registered an XC50 of 5.92 nM. To `CN(C(=O)C1(c2ccc(Cl)cc2)CC1)C1CCN(CCCCCNC(=O)/C=C/c2ccc(Cl)c(Cl)c2)CC1` belongs 769 nM; to `Cc1cc(C)c(NC(=O)NC2CCN(CCCCCNC(=O)/C=C/c3ccc(Cl)c(Cl)c3)C2)c(C)c1` (stereo unspecified), 186 nM; to `Cc1nc(NC(=N)N)nc2cc3c(cc12)CCC3`, 916 nM. As for `CCN(CCO)CCc1cccc(Nc2nccc(-c3c(-c4ccc(NC(=O)N(CC)CC)cc4)nn4ccccc34)n2)c1`, the XC50 is 1110 nM. To `COc1cccc(C(=O)NC(NC(=S)Nc2ccc(OC)cc2[N+](=O)[O-])C(Cl)(Cl)Cl)c1` (stereo unspecified) belongs 758 nM; to `COc1cc2c(cc1N(C(C)C)S(=O)(=O)c1sc3ccc(Cl)cc3c1C)CCNCC2`, 1050 nM; to `Oc1ccc2nc(N3CCNCC3)nc(NCCCc3ccccc3)c2c1`, 1370 nM.

The compound `O=C(NC1CCN(CC2(c3ccc(Cl)cc3)CCCCC2)CC1)c1cc[nH]n1` came in with an XC50 of 84 nM. `CCN(CC)CCNC(=O)c1ccc(NC(=O)c2ccc(-c3cc(NC(=O)CC4CCCC4)ccc3C)cc2)cc1` came in with an XC50 of 564 nM. In the case of `Cc1cccc2nc(-c3cccc(-c4ccc(CNCc5ccc(S(C)(=O)=O)cc5)cc4)c3)[nH]c12`, the XC50 was 184 nM. Turning to `CCC(C)(C)c1ccc(Oc2ccc(NC(=O)Nc3ccc(Cl)c(Cl)c3)cc2)cc1`, the XC50 is 704 nM. For `COCc1ccc(CN2CCC(C(=O)Nc3ccc(-c4nc5ccccc5[nH]4)cc3)CC2)o1` the value was 853 nM. In turn, `O=S(=O)(Nc1cccc(CCN2CCC(N3CCCCC3)CC2)c1)c1ccc(-c2ccccc2)cc1` returned an XC50 of 1120 nM. In the case of `COc1cccc2cc(C(=O)N[C@@H](CC(C)C)C(=O)N[C@H](C=NN3CCOC3=O)CC(C)C)oc12`, the XC50 was 741 nM. In turn, `Cn1nc(-c2ccc(NC(=O)Nc3ccc4ccccc4c3)c(F)c2)c2cnc(NCCN3CCOCC3)nc21` gave an XC50 of 1020 nM. Compound `CCCCCC(=O)NCC(NCCCNc1cc(=O)c2ccccc2[nH]1)c1cc(Br)cc(Br)c1` (stereo unspecified) displayed an XC50 of 652 nM. `CC(CN(C)C)C(=O)Nc1ccc(-c2csc(-c3nc4ccccc4[nH]3)c2)cc1` (stereo unspecified) had an XC50 of 1320 nM. For the compound `CCCCN(C)CC#Cc1ccc(-c2ccc3[nH]c(C)c(Br)c(=O)c3c2)cn1`, the XC50 turned out to be 647 nM. To `CCCCN(CCCC)CCCN(CCCN(CCCC)CCCC)c1cc(C)nc(Nc2ccc3cc(Br)ccc3c2)n1` belongs 320 nM; to `Oc1ccc2[nH]cc(C3CCN(CCCNCc4ccc(-c5ccccc5)cc4)CC3)c2c1`, 725 nM; to `O=C(/C=C/c1ccc(Cl)c(Cl)c1)NCCCCCN1CCCN(C(=S)Nc2ccc(Cl)cc2)CC1`, 1130 nM. `C=CCC(CC=C)N1C(=O)C(c2ccccc2)(c2ccccc2)N=C1N` registered an XC50 of 659 nM. In turn, `COc1ccc(CNCc2ccsc2)cc1-c1ccc(OC)c(S(=O)(=O)NCCN2CCCC2)c1` had an XC50 of 917 nM. The compound `Cn1ccnc1CNC(=O)c1ccc(-c2ccc(-c3nc4cc(C(F)(F)F)ccc4[nH]3)s2)cc1` registered an XC50 of 698 nM. In the case of `CCn1c(-c2nonc2N)nc2c(-c3cc4ccccc4s3)ncc(C(=O)N3CCC(N)C3)c21` (stereo unspecified), the XC50 was found to be 871 nM. For `COc1ccc(S(=O)(=O)N(CCCN2CCN(C)CC2)Cc2csc(-c3ccc(CNCc4ccccc4)cc3)n2)cc1` the value was 949 nM; for `O=C(NCc1ccc(Cl)c(Cl)c1)c1cc(CNC2CCNCC2)ccc1O`, 859 nM. Consider `O=C(NCc1cccc(C(F)(F)F)c1)C1CCCN(C(=O)c2ccc(O)c(-c3ccc(Cl)c(Cl)c3)c2)C1` (stereo unspecified), for which the XC50 turned out to be 804 nM. For `Cc1ccc(Nc2nccc(Nc3ccc4c(c3)nc(Nc3cc(C(C)(C)C)on3)n4C)n2)cc1S(C)(=O)=O` the value was 599 nM; for `Cc1cc(C)cc(OCC(O)CN(CCN2CCOCC2)C(=O)Nc2ccc(Br)cc2)c1` (stereo unspecified), 1030 nM; for `Cc1ccc2c(Cl)c(C(=O)N3CC(C)OC(C)C3)sc2c1` (stereo unspecified), 176 nM.

With `CCCC1(NC[C@@H](O)[C@H](Cc2ccccc2)NC(=O)c2cc(NCC)cc(N3CCCCS3(=O)=O)c2)CCCC1`, the XC50 was determined as 505 nM. With `Cc1cnc(C(=O)Nc2cccc(-c3csc(-c4nc5ccccc5[nH]4)c3)c2)cn1`, the XC50 came to 275 nM. Consider `COc1ccc(Nc2ncc(OC)c(Nc3ccccc3C(N)=O)n2)cc1N1CCN(C)CC1`, for which the XC50 turned out to be 740 nM. For the compound `Cc1[nH]c(C)c(-c2ccc(OCc3cc(C(F)(F)F)cc(C(F)(F)F)c3)nc2)c(=O)c1Br`, the XC50 worked out at 152 nM. `Cc1cc(CN2CCCC(OC(c3ccc(F)cc3)c3ccc(F)cc3)C2)ccc1O` (stereo unspecified) came in with an XC50 of 883 nM. `CC1(C)NC(N)=NC(=N)N1OCCCSc1ccccc1` came in with an XC50 of 3.2 nM. `CS(=O)(=O)c1ccc(-c2cncc(Cl)n2)cc1` showed an XC50 of 770 nM. Turning to `O=C(N/C=N/c1cc([N+](=O)[O-])c(-c2cccnc2)n1-c1ccc(O)cc1)c1ccccc1`, the XC50 worked out at 299 nM. In the case of `Cn1nc2ccc3ccccc3c2nc1=N`, the XC50 came out at 773 nM. Turning to `CCCCNS(=O)(=O)c1ccc(NC(=O)c2cc([N+](=O)[O-])ccc2Cl)cc1`, the XC50 was found to be 902 nM. As to `CN(CCCNc1ccc(C(=O)Nc2ccc(C(F)(F)F)cc2)cc1[N+](=O)[O-])Cc1ccccc1`, the XC50 was found to be 229 nM.
